The record followed here is ChEMBL document CHEMBL5291721, “A preclinical secondary pharmacology resource illuminates target-adverse drug reaction associations of marketed drugs” (Nat Commun, 2023).

One assay addresses D(1A) dopamine receptor (Homo sapiens, UniProt P21728).
A further assay concerns the target D(3) dopamine receptor (Homo sapiens, UniProt P35462).
The next assay addresses T1, Adenosine receptor A3 (Homo sapiens, UniProt P0DMS8).
T1 sequence (P0DMS8 whole entry): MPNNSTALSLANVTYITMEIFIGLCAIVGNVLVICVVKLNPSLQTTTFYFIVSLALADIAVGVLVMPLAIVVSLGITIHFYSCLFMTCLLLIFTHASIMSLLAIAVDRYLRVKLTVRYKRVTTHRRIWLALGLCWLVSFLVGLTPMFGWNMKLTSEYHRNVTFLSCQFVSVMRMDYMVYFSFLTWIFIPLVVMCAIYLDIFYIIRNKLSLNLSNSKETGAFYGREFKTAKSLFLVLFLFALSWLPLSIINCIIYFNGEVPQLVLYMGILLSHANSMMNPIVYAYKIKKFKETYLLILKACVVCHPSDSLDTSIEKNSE

The target of assay [1] is T2, Alpha-2A adrenergic receptor (Homo sapiens, UniProt P08913).
T2 sequence (P08913 whole entry): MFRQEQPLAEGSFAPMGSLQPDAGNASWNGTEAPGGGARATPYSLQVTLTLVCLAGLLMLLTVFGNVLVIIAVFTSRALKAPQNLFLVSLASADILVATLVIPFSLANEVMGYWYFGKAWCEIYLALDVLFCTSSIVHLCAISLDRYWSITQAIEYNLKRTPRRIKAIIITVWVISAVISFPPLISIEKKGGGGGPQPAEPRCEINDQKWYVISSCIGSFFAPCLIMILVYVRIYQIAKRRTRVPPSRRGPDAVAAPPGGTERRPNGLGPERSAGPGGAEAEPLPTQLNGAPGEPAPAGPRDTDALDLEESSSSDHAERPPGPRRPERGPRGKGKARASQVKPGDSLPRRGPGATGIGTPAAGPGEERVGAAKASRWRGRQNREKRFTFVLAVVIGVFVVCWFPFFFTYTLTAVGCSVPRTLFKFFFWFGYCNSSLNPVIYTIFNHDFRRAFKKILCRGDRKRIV
It is filed as functional, cell-based.

Assay [2] has as its target T3, 5-hydroxytryptamine receptor 2C (Homo sapiens, UniProt P28335).
T3 sequence (P28335 whole entry): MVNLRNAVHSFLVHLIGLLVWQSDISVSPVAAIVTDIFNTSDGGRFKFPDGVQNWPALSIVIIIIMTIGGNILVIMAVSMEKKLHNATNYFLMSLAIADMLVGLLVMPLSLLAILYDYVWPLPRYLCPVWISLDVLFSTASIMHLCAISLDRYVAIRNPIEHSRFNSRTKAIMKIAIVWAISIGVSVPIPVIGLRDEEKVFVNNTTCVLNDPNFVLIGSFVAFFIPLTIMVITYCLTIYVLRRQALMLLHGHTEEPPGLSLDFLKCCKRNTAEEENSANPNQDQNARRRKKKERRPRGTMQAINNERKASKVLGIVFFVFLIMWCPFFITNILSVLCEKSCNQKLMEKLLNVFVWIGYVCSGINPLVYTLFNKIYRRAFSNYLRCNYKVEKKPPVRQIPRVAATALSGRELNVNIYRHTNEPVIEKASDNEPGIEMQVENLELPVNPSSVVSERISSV

For assay [3], the target named is T4, Equilibrative nucleoside transporter 1 (Homo sapiens, UniProt Q99808).
T4 sequence (Q99808 whole entry): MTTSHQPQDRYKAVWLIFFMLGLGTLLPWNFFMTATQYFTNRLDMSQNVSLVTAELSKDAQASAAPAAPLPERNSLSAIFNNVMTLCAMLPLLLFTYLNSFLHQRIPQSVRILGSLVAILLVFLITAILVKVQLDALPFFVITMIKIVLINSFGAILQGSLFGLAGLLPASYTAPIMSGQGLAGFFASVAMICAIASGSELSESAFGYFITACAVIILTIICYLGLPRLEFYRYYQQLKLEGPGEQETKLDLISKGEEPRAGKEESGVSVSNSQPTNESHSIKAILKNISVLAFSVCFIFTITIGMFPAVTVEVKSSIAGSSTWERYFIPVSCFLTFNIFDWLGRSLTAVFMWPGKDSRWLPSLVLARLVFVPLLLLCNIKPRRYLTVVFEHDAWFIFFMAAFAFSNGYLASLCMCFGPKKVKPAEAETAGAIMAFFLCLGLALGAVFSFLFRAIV

Assay [4] concerns the target T5, 5-hydroxytryptamine receptor 1A (Homo sapiens, UniProt P08908).
T5 sequence (P08908 whole entry): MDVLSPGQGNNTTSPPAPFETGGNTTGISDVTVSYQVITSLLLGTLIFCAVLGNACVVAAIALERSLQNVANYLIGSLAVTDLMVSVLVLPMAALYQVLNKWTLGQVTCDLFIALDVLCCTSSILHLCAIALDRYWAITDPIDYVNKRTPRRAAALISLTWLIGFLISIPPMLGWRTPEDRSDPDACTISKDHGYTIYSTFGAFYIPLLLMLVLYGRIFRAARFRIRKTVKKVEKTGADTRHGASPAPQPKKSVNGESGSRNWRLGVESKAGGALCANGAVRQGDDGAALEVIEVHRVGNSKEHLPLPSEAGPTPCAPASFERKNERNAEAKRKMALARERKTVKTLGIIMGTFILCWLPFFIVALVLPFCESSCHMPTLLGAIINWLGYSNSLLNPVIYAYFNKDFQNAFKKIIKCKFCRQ
The assay is classed as functional, cell-based.

The target in assay [5] is Beta-1 adrenergic receptor (Homo sapiens, UniProt P08588). It is filed as functional.
In assay [6] the target is Gamma-aminobutyric acid receptor subunit alpha-1 (Rattus norvegicus, UniProt P62813). It is filed as functional.

Where only a bound is given, the exact number is not on record here.
Also: assay procedure not described here.

D(1A) dopamine receptor, sequence (P21728 whole entry): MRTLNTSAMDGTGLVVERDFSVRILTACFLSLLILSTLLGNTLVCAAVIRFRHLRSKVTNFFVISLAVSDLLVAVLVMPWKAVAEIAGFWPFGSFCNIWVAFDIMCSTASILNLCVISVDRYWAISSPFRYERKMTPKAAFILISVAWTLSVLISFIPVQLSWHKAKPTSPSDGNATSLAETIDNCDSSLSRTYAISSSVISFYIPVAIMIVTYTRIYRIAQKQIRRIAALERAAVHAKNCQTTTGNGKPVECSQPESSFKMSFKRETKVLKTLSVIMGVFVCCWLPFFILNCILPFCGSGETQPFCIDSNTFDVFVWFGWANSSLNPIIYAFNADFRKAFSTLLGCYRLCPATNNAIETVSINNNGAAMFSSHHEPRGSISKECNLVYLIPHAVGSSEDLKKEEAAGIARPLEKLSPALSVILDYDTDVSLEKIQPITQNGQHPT
Gamma-aminobutyric acid receptor subunit alpha-1, sequence (P62813 whole entry): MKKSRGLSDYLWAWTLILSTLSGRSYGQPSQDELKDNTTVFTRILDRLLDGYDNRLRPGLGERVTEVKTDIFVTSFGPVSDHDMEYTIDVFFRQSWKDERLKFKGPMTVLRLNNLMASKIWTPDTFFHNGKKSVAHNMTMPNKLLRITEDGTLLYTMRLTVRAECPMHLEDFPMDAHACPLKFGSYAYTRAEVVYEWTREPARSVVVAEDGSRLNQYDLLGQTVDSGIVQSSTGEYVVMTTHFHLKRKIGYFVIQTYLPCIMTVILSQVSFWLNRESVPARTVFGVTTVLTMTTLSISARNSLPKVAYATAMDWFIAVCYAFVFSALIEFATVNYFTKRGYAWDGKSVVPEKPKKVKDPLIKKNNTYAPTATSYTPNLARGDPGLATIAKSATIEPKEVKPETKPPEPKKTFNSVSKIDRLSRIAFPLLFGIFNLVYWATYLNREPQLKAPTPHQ
Beta-1 adrenergic receptor, sequence (P08588 whole entry): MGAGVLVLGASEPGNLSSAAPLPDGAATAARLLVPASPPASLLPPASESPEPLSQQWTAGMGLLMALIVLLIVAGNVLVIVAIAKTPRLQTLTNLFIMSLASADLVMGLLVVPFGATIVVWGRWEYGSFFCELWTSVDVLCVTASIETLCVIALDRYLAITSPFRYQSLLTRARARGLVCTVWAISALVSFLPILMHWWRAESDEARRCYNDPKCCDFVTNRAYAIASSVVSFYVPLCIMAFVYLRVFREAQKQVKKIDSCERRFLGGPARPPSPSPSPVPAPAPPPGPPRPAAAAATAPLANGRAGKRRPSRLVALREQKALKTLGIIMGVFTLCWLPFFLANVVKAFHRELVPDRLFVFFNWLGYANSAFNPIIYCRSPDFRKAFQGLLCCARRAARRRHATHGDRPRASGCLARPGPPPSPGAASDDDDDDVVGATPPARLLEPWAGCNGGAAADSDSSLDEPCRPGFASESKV
D(3) dopamine receptor, sequence (P35462 whole entry): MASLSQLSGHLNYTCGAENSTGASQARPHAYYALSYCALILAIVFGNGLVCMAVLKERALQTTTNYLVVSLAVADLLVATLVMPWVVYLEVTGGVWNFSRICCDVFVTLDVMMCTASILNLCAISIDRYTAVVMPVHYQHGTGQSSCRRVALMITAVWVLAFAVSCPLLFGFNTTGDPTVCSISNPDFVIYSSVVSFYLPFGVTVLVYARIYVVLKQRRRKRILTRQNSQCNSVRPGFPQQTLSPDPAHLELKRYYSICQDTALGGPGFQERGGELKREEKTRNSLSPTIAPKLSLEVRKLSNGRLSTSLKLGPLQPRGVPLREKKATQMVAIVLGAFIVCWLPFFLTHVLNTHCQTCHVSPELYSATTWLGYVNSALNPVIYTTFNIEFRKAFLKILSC

As for `COc1cccc(C(=O)CCN[C@@H](C)[C@H](O)c2ccccc2)c1` [OXYFEDRINE], the AC50 was 16.4 µM at D(1A) dopamine receptor and 0.382 µM at D(3) dopamine receptor.

With `C[C@@H]1C[C@H]2[C@@H]3C[C@H](F)C4=CC(=O)C=C[C@]4(C)[C@H]3[C@@H](O)C[C@]2(C)[C@@]1(O)C(=O)CO` [PARAMETHASONE], the AC50 at D(1A) dopamine receptor and on D(3) dopamine receptor was over 30 µM each time.

As for `CC(OCCN1CCCCCC1)(c1ccccc1)c1ccc(Cl)cc1` (stereo not given) [SETASTINE], the values for the half-maximal activity concentration (AC50) on D(1A) dopamine receptor and at D(3) dopamine receptor were 6.96 µM and 0.432 µM, respectively.

For the molecule `Cc1ncc2c(c1O)COC2c1ccc(Cl)cc1` (stereo not given) [CICLETANINE], the AC50 at D(1A) dopamine receptor and at D(3) dopamine receptor was over 30 µM in each case.

Turning to `CC(C)c1cccc(C(C)C)c1O` [PROPOFOL], the AC50 (at Adenosine receptor A3; in assay [1]; in [2]; in assay [3]; in assay [4]; in assay [5]) was over 30 µM in each case.

Take `c1ccc2c(SC3=NCCN3)c[nH]c2c1` [TINAZOLINE]: the AC50 on D(1A) dopamine receptor and on D(3) dopamine receptor was over 30 µM each time.

In the case of `CC(=O)[C@]1(N)Cc2c(O)c3c(c(O)c2[C@@H](O[C@H]2C[C@H](O)[C@H](O)CO2)C1)C(=O)c1ccccc1C3=O` [AMRUBICIN], the AC50 on D(1A) dopamine receptor and at D(3) dopamine receptor was over 30 µM throughout.

Consider `CC(C)(Oc1ccc(CCNC(=O)c2ccc(Cl)cc2)cc1)C(=O)O` [BEZAFIBRATE], for which the AC50 at Adenosine receptor A3 is over 10 µM; in assay [1], over 10 µM; in assay [2], over 30 µM; in [3], over 10 µM; in assay [4], over 30 µM; in [5], over 10 µM. Also, in [6], the AC50 was over 10 µM.

For `Cc1ccccc1N1C(=O)c2cc(S(N)(=O)=O)c(Cl)cc2NC1C` (stereo not given) [METOLAZONE], the AC50 at Adenosine receptor A3 was over 10 µM; in [1] it was over 10 µM; in assay [2] it was over 30 µM; in [3] it was over 10 µM; in assay [4], over 10 µM; in assay [5], over 10 µM. Moreover, in assay [6], the concentration at half-maximal activity (AC50) was over 10 µM.

With `C[C@H](CCC(=O)O)[C@H]1CC[C@H]2[C@@H]3[C@H](O)C[C@@H]4C[C@H](O)CC[C@]4(C)[C@H]3C[C@H](O)[C@]12C` [CHOLIC ACID], the AC50 at D(1A) dopamine receptor was over 30 µM.

With `O=C1c2ccccc2C(=O)C1c1ccccc1` [PHENINDIONE], the half-maximal activity concentration (AC50) was over 10 µM at Adenosine receptor A3; over 10 µM in assay [1]; over 30 µM in assay [2]; over 10 µM in assay [3]; over 30 µM in [4]; over 10 µM in assay [5]. Moreover, in [6], the AC50 is over 10 µM.

As for `CCC1(c2ccc(N)cc2)CCC(=O)NC1=O` (stereo not given) [AMINOGLUTETHIMIDE], the AC50 (at Adenosine receptor A3; in [1]; in [2]; in assay [3]; in assay [4]; in assay [5]) was over 30 µM in each case. Moreover, the half-maximal activity concentration (AC50) in assay [6] is over 30 µM.

`CN(Cc1cnc2nc(N)nc(N)c2n1)c1ccc(C(=O)N[C@@H](CCC(=O)O)C(=O)O)cc1` [METHOTREXATE]: the AC50 was over 30 µM at Adenosine receptor A3; over 10 µM in assay [1]; over 30 µM in assay [2]; over 30 µM in assay [3]; over 10 µM in [4]; over 10 µM in assay [5]. The AC50 in assay [6] was over 10 µM.

In the case of `C[C@]12CCC(=O)C[C@@H]1CC[C@@H]1[C@@H]2CC[C@]2(C)[C@@H](O)CC[C@@H]12` [STANOLONE], the AC50 (on Adenosine receptor A3; in assay [1]; in assay [2]; in assay [3]; in assay [4]; in assay [5]) was over 30 µM in each case. In assay [6], this molecule registered an AC50 of over 30 µM.

On to `C[N+](C)(C)CCOP(=O)([O-])OC[C@H](O)CO`, for which the half-maximal activity concentration (AC50) (at Adenosine receptor A3; in [1]; in assay [2]; in assay [3]; in assay [4]; in assay [5]) was over 30 µM throughout. This molecule also gave an AC50 in [6] of over 30 µM.

Turning to `CN[C@]1(c2ccccc2Cl)CCCCC1=O` [ESKETAMINE], the AC50 (on Adenosine receptor A3; in [1]; in [2]; in assay [3]; in assay [4]; in assay [5]) was over 30 µM each time. In assay [6], the AC50 is over 30 µM.

For `O=C(O)[C@@H]1C[C@@H](O)CN1`, at D(1A) dopamine receptor, the AC50 is over 30 µM.

On to `CC(=O)OC[C@H]1O[C@@H](n2ncc(=O)[nH]c2=O)[C@H](OC(C)=O)[C@@H]1OC(C)=O` [AZARIBINE], for which the AC50 at D(3) dopamine receptor was over 30 µM.

Consider `CCOC(=O)c1ccc(N)cc1` [BENZOCAINE], for which the AC50 was over 10 µM at Adenosine receptor A3; over 10 µM in [1]; over 30 µM in assay [2]; over 10 µM in [3]; over 10 µM in assay [4]; over 10 µM in [5]. In [6], this molecule yielded an AC50 of over 10 µM.

Take `CCC[C@@H]1C[C@@H](C(=O)N[C@@H]([C@H]2O[C@H](SC)[C@H](O)[C@@H](O)[C@H]2O)[C@@H](C)O)N(C)C1` [LINCOMYCIN]: the AC50 at Adenosine receptor A3 is over 10 µM; in [1], over 30 µM; in [2], over 30 µM; in assay [3], over 10 µM; in assay [4], over 30 µM; in assay [5] it was over 10 µM. In assay [6], the concentration at half-maximal activity (AC50) was over 10 µM.

Take `O=C(O)c1cccnc1Nc1cccc(C(F)(F)F)c1` [NIFLUMIC ACID]: the AC50 on Adenosine receptor A3 is over 10 µM; in assay [1] it was over 10 µM; in assay [2] it was over 30 µM; in [3], over 10 µM; in assay [4], over 10 µM; in assay [5], over 10 µM. Also, in assay [6], the AC50 was over 10 µM.

In the case of `CCOC(=O)C1=C(C)NC(C)=C(C(=O)OCC)C1c1ccccc1/C=C/C(=O)OC(C)(C)C` [LACIDIPINE], the concentration at half-maximal activity (AC50) at Adenosine receptor A3 is 15 µM; in [1], over 30 µM; in assay [2], over 30 µM; in [3], over 30 µM; in assay [4], over 30 µM; in assay [5], over 30 µM. Besides, in assay [6], the AC50 is over 30 µM.

For the molecule `CC(Cc1cccc(C(F)(F)F)c1)NCCOC(=O)c1ccccc1` (stereo not given) [BENFLUOREX], the AC50 stood at 28 µM at Adenosine receptor A3, 3.5 µM in [2], 4.3 µM in [4] and 5.7 µM in assay [5].

`CC(=O)OCC(=O)[C@@]1(O)CC[C@H]2[C@@H]3CCC4=CC(=O)CC[C@]4(C)[C@H]3[C@@H](O)C[C@@]21C` [HYDROCORTISONE ACETATE] displayed a half-maximal activity concentration (AC50) at D(1A) dopamine receptor of over 30 µM.

As usually defined, the AC50 is the concentration at which the activity in the assay is half-maximal.
